From PubChem BioAssay (NCI)
Where “and” joins values, the source holds several entries; their conditions need not be identical. Equal values may be shown once.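 Dose response: 5 concentrations. Exposure: 48 h. Format: 96-well plates. Endpoint: linear interpolation; highest concentration if not reached. Abbreviation: GI50, concentration required for 50% inhibition of growth. TGI marks complete inhibition of growth.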

Legend:
Experiment in all cases: DTP human tumour cell line panel, 48 h
NCI-H460 lung = system: NCI-H460 lung
DU-145 prostate = system: DU-145 prostate
SK-OV-3 ovarian = system: SK-OV-3 ovarian
HS 578T breast = system: HS 578T breast
NCI-H23 lung = system: NCI-H23 lung
RPMI-8226 leukemia = system: RPMI-8226 leukemia
LOX IMVI melanoma = system: LOX IMVI melanoma
HT29 colon = system: HT29 colon
EKVX NSCLC = system: EKVX NSCLC
SK-MEL-5 melanoma = system: SK-MEL-5 melanoma

Structure (SMILES)	GI50 (NCI-H460 lung) [µM]	TGI (NCI-H460 lung)	GI50 (DU-145 prostate) [µM]	TGI (DU-145 prostate) [µM]	GI50 (SK-OV-3 ovarian) [µM]	TGI (SK-OV-3 ovarian) [µM]	GI50 (HS 578T breast) [µM]	TGI (HS 578T breast) [µM]	GI50 (NCI-H23 lung) [µM]	TGI (NCI-H23 lung)	GI50 (RPMI-8226 leukemia) [µM]	TGI (RPMI-8226 leukemia) [µM]	GI50 (LOX IMVI melanoma) [µM]	TGI (LOX IMVI melanoma)	GI50 (HT29 colon) [µM]	TGI (HT29 colon)	GI50 (EKVX NSCLC) [µM]	TGI (EKVX NSCLC) [µM]	GI50 (SK-MEL-5 melanoma) [µM]	TGI (SK-MEL-5 melanoma) [µM]
O=C(c1nn(-c2ccc(Cl)cc2)cc1O)n1nc(C(F)(F)F)cc1-c1ccccc1	0.767	> 59.3 µM	8.47	> 100	2.53	> 100	0.556	> 100	5.49	> 100 µM	1.91	> 85.3	1.88	> 100 µM	4.07	> 83.8 µM	2	> 100	2.07	16.7
Nc1nc(-c2ccc(Cl)cc2)cc(-c2ccc(Cl)cc2)c1-c1nc2ccccc2o1	16.8	39.6 µM	17.2	36.6	22.4	41	23.5	53.1	17.8	37.3 µM	13.7	28.3	18.7	36.5 µM	11.1	36.1 µM	16.3	31.4	15.4	29.9
CN(C)CC1CCCCCC(Br)C1=O (centres undefined)	–	49.6 µM	–	25	–	> 100	–	61.5	–	29.6 µM	–	3.96	–	29.8 µM	–	50.3 µM	–	30.8	–	30.3
CC(C)=CC(=O)N[C@@H]1CC2CCC3C(CC[C@@]4(C)C3CC[C@@H]4C(C)N(C)C)[C@@]2(C)C[C@@H]1O (some centres undefined)	2.53	8.88 µM	10.7	> 100	10.4	24.6	6.12	25.3	5.06	39.1 µM	2.51	18.5	1.54	3.97 µM	0.496	2.92 µM	3.12	> 100	1.57	4.17
O=C(Oc1ccccc1Cl)c1ccccc1Nc1cccc(C(F)(F)F)c1	37.3	> 100 µM	31.8	89	47.5	> 100	26.1	67.1	19.8	73.7 µM	18.4	54.2	11.9	33.5 µM	30	> 100 µM	33.1	79.6	14.8	30.8
CCSc1ccc([C@@H]2[C@@H](N)C(=O)N2c2cc(OC)c(OC)c(OC)c2)cc1	0.0488	> 100 µM	0.188	> 100	0.0545	> 100	0.18	> 100	14.3	> 100 µM	0.0862	46.9	0.0754	> 100 µM	0.0333	18 µM	0.638	> 100	0.0783	> 100
O=C1/C(=C/c2ccc(Cl)cc2)CN(C(=O)CCN2CCC(=NO)CC2)C/C1=C\c1ccc(Cl)cc1	0.888	2.73 µM	1.28	2.6	1.94	4.21	1.27	6.43	1.13	2.63 µM	0.157	0.552	0.224	0.57 µM	0.338	1.31 µM	1.62	3.45	1.66	3.1
CCCCCCCCCCCC1=NC(C)(C)CN1CC(C)O (centres undefined)	2.35	5.05 µM	11.7	24	12.4	24.8	2.6	17.3	4.36	16 µM	1.58	4.18	1.85	4.42 µM	1.43	2.86 µM	11.2	25.2	5.65	18.1
CC#CC#C/C=C1\C=CC2(OC=CC2OC(C)=O)O1 (centres undefined)	–	65 µM and > 100 µM	–	37.7	–	> 100	–	> 100	–	42.9 µM and 16.5 µM	–	> 100	–	> 100 µM and 31.7 µM	–	34.8 µM and 55.9 µM	–	> 100	–	36.8
Cc1ccc2nc3c(n2c1)C(=O)C(=O)c1ccccc1-3	0.173	0.718 µM	0.288	1.12	1.01	2.47	0.213	0.618	0.217	0.576 µM	0.18	0.717	0.132	0.276 µM	1.74	–	0.654	1.65	0.112	0.244
COC1C(CO)OC(n2c3c(Cl)cccc3c3c4c(c5c6cccc(Cl)c6[nH]c5c32)C(=O)NC4=O)C(O)C1O (centres undefined)	–	0.479 µM	–	3.29	–	> 24.9	–	> 100	–	2.72 µM	–	> 18.7	–	0.289 µM	–	> 47.3 µM	–	> 100	–	0.321
CCCCCCCCCCCCCCCC(=O)OCC1OC(OC)C(NC(=O)N(CCCl)N=O)C(O)C1O (centres undefined)	–	23.1 µM	–	92.6	–	63	–	63.9	–	32 µM	–	61.6	–	17.5 µM	–	33.7 µM	–	> 87.5	–	59.9
CC(C)C[CH2][Ge]([CH2]CC(C)C)([CH2]CC(C)C)[CH2]CC(C)C	> 100	> 100 µM	> 100	> 100	> 100	> 100	> 100	> 100	> 100	> 100 µM	> 100	> 100	> 100	> 100 µM	> 100	> 100 µM	> 100	> 100	> 100	> 100
